Data published in US8628963B2, “Medium composition comprising neuropeptide Y for the generation, maintenance, prolonged undifferentiated growth of pluripotent stem cells and method of culturing pluripotent stem cell using the same” (Korea Research Institute of Bioscience and Biotechnology, priority 2009, dated 2014).
Entries after “also recorded” stand apart in the source; their conditions may differ.

What was measured:
[1] = system: phospho-ERK1/2 in H9 cells; test: Western blot of NPY signalling: ERK1/2 phosphorylation; format: cell-based, human; conditions: 30 min pretreatment with receptor antagonist (3 μM in FIG. 11 legend), 1 μM NPY
Method: (§1) The membranes were probed with the indicated antibodies, and β-actin was used as a loading control. For protein quantification, the blots were scanned, and the bands were quantified using densitometry (a-c, lower panels). The data are presented as the mean±SE (n=3). **p<0.01, *p<0.05, by t-test.
(§2) The supernatant was re-centrifuged for 10 min, and protein concentrations determined using the BCA protein assay kit (Pierce, Rockford, Ill.). Proteins (20 μg) were fractionated by SDS polyacrylamide gel electrophoresis (PAGE), and electrotransferred to polyvinylidene fluoride (PVDF) membranes (Millipore Corp, Bedford, Mass.). Membranes were blocked in PBS containing 0.1% Tween-20 and 5% non-fat milk for 2 hrs at room temperature, and probed with primary antibodies diluted in PBS/0.2% BSA for 1 hr. After washing, membranes were incubation with the corresponding secondary anti-rabbit HRP-conjugated or anti-mouse HRP-conjugated antibodies (Amersham, Arlington Heights, Ill.), and the bands were visualized using the ECL Advance kit (Amersham). Bands were analyzed for density with Image Gauge software (Fuji Photo Film GMBH, D) and normalized to loading control (β-actin) bands. All experiments were performed in triplicate. Error bars represent standard error of the mean (n=3).

phospho-AKT in H9 cells = test: Western blot of NPY signalling: AKT phosphorylation; format: cell-based, human; conditions: 1 μM NPY
Method: as §1, §2

phospho-CREB in H9 cells = test: Western blot / immunohistochemistry of NPY signalling: CREB phosphorylation; format: cell-based, human; conditions: 1 μM NPY; for Effect on NPY-mediated CREB phosphorylation: pretreatment with kinase inhibitor, inhibition appeared incomplete
Method: as §1
For immunostaining, cells were plated on matrigel-coated 4-well Lab-Tek chamber slides (Nunc, Naperville, Ill.) and cultured for 5 days under described conditions. […] Cells were incubated for 2 hrs at 4° C. with respective primary antibodies diluted in PBS/0.2% BSA. After washing, cells were incubated with FITC- or Alexa 594-conjugated secondary antibodies (Invitrogen) in PBS/0.2% BSA for 1 hr at room temperature. Cells were counterstained using 10 μg/ml DAPI (4′,6-diamidino-2-phenylindole). Chamber slides were analyzed by an Olympus microscope or Axiovert 200M microscope (Carl Zeiss, Gottingen, Germany).
as §2

[2] = system: human embryonic stem cells; test: Feeder-free culture: maintenance of undifferentiated state (morphology, ALP staining, hESC markers); format: cell-based; conditions: 3 μM antagonist in NPY medium
Method: Each experiment was carried out at least three times. […] Error bars represent standard error of the mean (n=3).

H9 hESCs = test: BrdU incorporation (hESC proliferation); format: cell-based, human; conditions: inhibitor 10 μM (FIG. 4b), NPY medium
Method: The proliferation rate of H9 hESCs cultured using the indicated media was measured using BrdU incorporation. […] Upper panels: representative images of BrdU+ cells. Bar=100 μm. Lower panels: Quantification of BrdU+ cells. The relative number of BrdU+ cells per field of vision was quantified and is presented as the percentage of the total number of cells counted.
Human embryonic stem cells were grown on matrigel-coated 4-well LabTec chamber slides for 4 days for the 5-bromo-2-deoxyuridine (BrdU; BD Pharmingen, San Diego) incorporation assays.
For BrdU incorporation, the cells were incubated in the presence of 30 μM BrdU for 1 hr at 37° C. […] After washing, the cells were incubated with the anti-BrdU antibody in PBS supplemented with 3% BSA for 1 hr, and then incubated with a FITC-conjugated secondary antibody (Invitrogen) for 30 min. The nuclei were stained with DAPI and examined using an Olympus microscope. The mean number of BrdU+ cells per field of vision was determined. At least four fields of vision per coverslip were counted.

H9 cells = test: Growth efficiency test (cell number); format: cell-based, human; conditions: TGFβ addition (1 ng/ml) to N2/B27 medium with NPY, compared with MEF-CM and UM supplemented with NPY
Method: Comparison of the growth efficiency of H9 cells cultured using the indicated media for 6 days by measuring the cell number as described in Materials and Methods. The data are presented as the mean±SE (n=3). **p<0.01, *p<0.02, by t-test.
hESC clumps (100×100 μm; approximately 70-90 cells per clump) was seeded evenly on a 35 mm culture dish coated with Matrigel in a final volume of 2 ml. The cells were plated to a cell density of approximately 5×10^5 cells per 35 mm culture dish. The plated cells were allowed to grow for 6 days under described culture conditions. To determine the number of cells, the cells were washed with PBS and trypsinized. The cell suspension was mixed with a 0.4% (wt/vol) trypan blue solution, and the number of live cells was determined using a hemocytometer. Each trial was performed in triplicate.

Molecule: NC(N)=NCCC[C@@H](NC(=O)C(c1ccccc1)c1ccccc1)C(=O)NCc1ccc(O)cc1 [BIBP3226]
- Effect on NPY-mediated ERK activation [1]: significantly reduced
- Effect on NPY-mediated AKT activation (phospho-AKT in H9 cells; 30 min pretreatment with receptor antagonist (3 μM in FIG. 11 legend)): significantly reduced
- Effect on NPY-mediated up-regulation of p-CREB (phospho-CREB in H9 cells; pretreatment with receptor antagonist): partially blocked
- Maintenance of undifferentiated state in NPY medium in presence of antagonist (morphology; ALP, OCT4, SOX2, hTERT, TDGF) [2]: fail to maintain in an undifferentiated state; also recorded: loss of undifferentiated human embryonic stem cells

Molecule: O=S(=O)(NCCNC/C=C/c1ccc(Br)cc1)c1cccc2cnccc12 [H89]
- Effect on NPY-mediated CREB phosphorylation (phospho-CREB in H9 cells): blocked
- Effect on NPY-stimulated BrdU incorporation (H9 hESCs): potent in suppressing NPY-stimulated BrdU incorporation

Molecule: N#CC(=C(/N)Sc1ccccc1N)/C(C#N)=C(\N)Sc1ccccc1N [U0126]
- Effect on NPY-mediated AKT activation (phospho-AKT in H9 cells; pretreatment with kinase inhibitor (10 μM in FIG. 12 legend)): inhibited
- Effect on NPY-mediated CREB phosphorylation (phospho-CREB in H9 cells): blocked
- Effect on NPY-stimulated BrdU incorporation (H9 hESCs): potent in suppressing NPY-stimulated BrdU incorporation

Molecule: TGFβ
- Effect on growth efficiency (cell number) (H9 cells): did not affect the growth efficiency
